Here are results for 36 molecules from patent publication US20050288323A1, “Octahydro-indolizine and quinolizine and hexahydro-pyrrolizine” (priority 2000, published 2005).

pKi: −log10 of the molar value.

What is called pKi is −log10 of the Ki, conventionally taken in molar units.

The target of the first assay is T1, human histamine H3 receptor (Homo sapiens, UniProt Q9Y5N1).
T1 construct: One microgram of supercoiled H3 receptor cDNA was added to the cells and mixed; expressed in transfected cells; membranes
T1 sequence (Q9Y5N1 whole entry): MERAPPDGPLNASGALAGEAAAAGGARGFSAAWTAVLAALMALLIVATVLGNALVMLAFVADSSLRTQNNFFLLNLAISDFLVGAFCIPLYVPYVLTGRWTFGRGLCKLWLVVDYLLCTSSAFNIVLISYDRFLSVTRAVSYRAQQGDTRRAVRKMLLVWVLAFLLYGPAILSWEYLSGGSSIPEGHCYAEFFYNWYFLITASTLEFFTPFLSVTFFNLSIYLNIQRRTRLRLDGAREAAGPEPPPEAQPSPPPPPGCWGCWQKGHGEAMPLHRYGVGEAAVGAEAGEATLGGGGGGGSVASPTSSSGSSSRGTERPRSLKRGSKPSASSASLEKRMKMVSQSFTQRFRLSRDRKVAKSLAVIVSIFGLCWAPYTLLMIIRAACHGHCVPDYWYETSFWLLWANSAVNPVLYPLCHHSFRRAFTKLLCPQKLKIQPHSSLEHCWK
Briefly: [3H]-N-methylhistamine binding. As to conditions: Table 5; [3H]-N-methylhistamine binding. How it is done: Thus in the present invention receptor binding was determined using the human histamine H3 receptor (See Lovenberg et al Mol. Pharmacol. 1999, 1107). Screening using the human receptor is particularly important for the identification of new therapies for the treatment of human disease. Conventional binding assays for example are determined using rat synaptosomes (Garbarg et al J. Pharmacol. Exp. Ther. 1992, 263, 304), rat cortical membranes (West et al Mol. Pharmacol. 1990, 610), and guinea pig brain (Korte et al Biochem. Biophys. Res. Commun. 1990, 978). Only limited studies have been performed previously using human tissue but these allude to significant differences in the pharmacology of rodent and primate receptors (West et al Eur. J. Pharmacol. 1999, 233).
Transfection of Cells with Human Histamine Receptor
A 10 cm tissue culture dish with a confluent monolayer of SK-N-MC cells was split two days prior to transfection. Using sterile technique the media was removed and the cells were detached from the dish by the addition of trypsin. One fifth of the cells were then placed onto a new 10 cm dish. Cells were grown in a 37° C. incubator with 5% CO2 in Minimal Essential Media Eagle with 10% Fetal Bovine Serum. After two days cells were approximately 80% confluent. These were removed from the dish with trypsin and pelleted in a clinical centrifuge. The pellet was then re-suspended in 400 μL complete media and transferred to an electroporation cuvette with a 0.4 cm gap between the electrodes (Bio-Rad #165-2088). One microgram of supercoiled H3 receptor cDNA was added to the cells and mixed. The voltage for the electroporation was set at 0.25 kV, the capacitance was set at 960 μF. After electroporation the cells were diluted into 10 mL complete media and plated onto four 10 cm dishes. Because of the variability in the efficiency of electroporation, four different concentrations of cells were plated. The ratios used were; 1:20, 1:10, 1:5, with the remainder of the cells being added to the fourth dish. The cells were allowed to recover for 24 hours before adding the selection media (complete media with 600 μg/mL G418). After 10 days dishes were analyzed for surviving colonies of cells. Dishes with well isolated colonies were used. Cells from individual colonies were isolated and tested. SK-N-MC cells were used because they give efficient coupling for inhibition of adenylate cyclase. The clones that gave the most robust inhibition of adenylate cyclase in response to histamine were used for further study.
[^3H]-N-methylhistamine Binding
Cell pellets from histamine H3 receptor-expressing SK-N-MC cells were homogenized in 20 mM TrisHCl/0.5 mM EDTA. Supernatants from a 800 g spin were collected, recentrifuged at 30,000 g for 30 minutes. Pellets were re-homogenized in 50 mM Tris/5 mM EDTA (pH 7.4). Membranes were incubated with 0.8 nM [^3H]-N-methylhistamine plus/minus test compounds for 45 min at 25° C. and harvested by rapid filtration over GF/C glass fiber filters (pretreated with 0.3% polyethylenimine) followed by four washes with ice cold buffer. Filters were dried, added to 4 mL scintillation cocktail and then counted on a liquid scintillation counter. Non-specific binding was defined with 10 μM histamine. The pKi values were calculated based on a Kd of 800 pM and a ligand concentration ([L]) of 800 pM according to the formula: Ki=(IC50)/(1+([L]/(Kd))
Regarding `c1cncc(CNc2ccc([C@H]3CC[C@H]4CCCCN43)cc2)c1` (racemic) [Example 127], the pKi is 6.23.

On to `c1ccc(CNc2ccc([C@H]3CC[C@H]4CCCCN43)cc2)nc1` (racemic) [Example 128], for which the pKi is 5.87.

For `c1cc(CNc2ccc([C@H]3CC[C@H]4CCCCN43)cc2)cs1` (racemic) [Example 129], the pKi was 6.19.

In turn, `c1coc(CNc2ccc([C@H]3CC[C@H]4CCCCN43)cc2)c1` (racemic) [Example 130] showed a pKi of 6.19.

In the case of `c1cc(CNc2ccc([C@H]3CC[C@H]4CCCCN43)cc2)ccn1` (racemic) [Example 131], the pKi is 6.29.

Molecule `c1ccc(CNc2ccc([C@H]3CC[C@H]4CCCCN43)cc2)cc1` (racemic) [Example 132] gave a pKi of 6.29.

For the molecule `[O-][n+]1ccc(CNc2ccc([C@H]3CC[C@H]4CCCCN43)cc2)cc1` (racemic) [Example 133], the pKi was 5.36.

Take `c1c[nH]c(CNc2ccc([C@H]3CC[C@H]4CCCCN43)cc2)n1` (racemic) [Example 134]: the pKi was 5.44.

As to `c1ccc(CN(Cc2ccccc2)c2ccc([C@H]3CC[C@H]4CCCCN43)cc2)cc1` (racemic) [Example 135], the pKi was 5.40.

The assay is the same for the next values; noted with them: [3H]-N-methylhistamine 0.8 nM, membranes of H3 receptor-expressing SK-N-MC cells.
In turn, `c1cc([C@H]2CC[C@H]3CCCCN32)ccc1OCCCN1CCCCC1` (racemic) [Example 92, trans-3-(4-(3-Piperidinylpropoxy)phenyl)octahydroindolizine] had a pKi of 9.52.

As for `CN(c1ccc([C@H]2CC[C@H]3CCCCN32)cc1)S(C)(=O)=O` (racemic) [Example 99, trans-3-(4-(N-Methyl-N-methylsulfonylamido)phenyl)octahydroindolizine], the pKi was below 5.30.

Molecule `CC(C)(C)OC(=O)N1CCC(Nc2ccc([C@H]3CC[C@H]4CCCCN43)cc2)CC1` (racemic) [Example 100] had a pKi of 6.29.

`CS(=O)(=O)N1CCC(Nc2ccc([C@H]3CC[C@H]4CCCCN43)cc2)CC1` (racemic) [Example 102, trans-3-[4-(N-Methylsulfonyl-4-aminopiperidine)phenyl]octahydroindolizine]: the pKi was 6.61.

Molecule `CN(c1ccc([C@H]2CC[C@H]3CCCCN32)cc1)C1CCN(S(C)(=O)=O)CC1` (racemic) [Example 103] gave a pKi of 7.01.

As for `CCN(c1ccc([C@H]2CC[C@H]3CCCCN32)cc1)C1CCN(S(C)(=O)=O)CC1` (racemic) [Example 104, trans-3-[4-(N-Ethyl-N-4-N-methylsufonylpiperidinylamino)phenyl]octahydroindolizine], the pKi was 5.75.

`CN(C(=O)CCCCN1CCCCC1)c1ccc([C@H]2CC[C@H]3CCCCN32)cc1` (racemic) [Example 113, trans-3-[4-(N-Methyl-N-5-piperidylpentanamido)phenyl]octahydroindolizine] showed a pKi of 7.20.

The molecule `O=S(=O)(CCN1CCCCC1)Nc1ccc([C@H]2CC[C@H]3CCCCN32)cc1` (racemic) [Example 120, trans-3-{4-[(2-Piperidylethyl)sulfonyl]amidophenyl}octahydroindolizine] showed a pKi of 7.96.

Molecule `O=C(c1ccc(Cl)cc1)c1ccc([C@H]2CC[C@H]3CCCCN32)cc1` (racemic) [Example 124, trans-3-{4-[(4-Chlorophenyl)methan-1-oxo]phenyl}octahydroindolizine] gave a pKi of 6.43.

In turn, `Clc1ccc(Cc2ccc([C@H]3CC[C@H]4CCCCN43)cc2)cc1` (racemic) [Example 125] gave a pKi of 6.18.

The molecule `O=Cc1ccc([C@H]2CC[C@H]3CCCCN32)cc1` (racemic) [trans-3-(4-Formylphenyl)octahydroindolizine] gave a pKi of 6.23.

Take `N=C1NC(=N)/C(=C/c2ccc([C@H]3CC[C@H]4CCCCN43)cc2)S1` (relative stereo) [Example 46, trans-3-[4-(4-Methylene-1,3-thiazolidine-2,4-diimine)phenyl]octahydroindolizine]: the pKi was 6.48.

In the case of `FC(F)(F)Oc1ccc(-c2ccc([C@H]3CC[C@H]4CCCCN43)cc2)cc1` (relative stereo) [Example 47, trans-3-[4-(4-Trifluromethoxyphenyl)phenyl]octahydroindolizine], the pKi was 5.91.

`COc1ccccc1[C@H]1C[C@@H]2CCCCN2C1` (relative stereo) [Example 70, anti-2-(2-Methoxyphenyl)octahydroindolizine] gave a pKi of 6.10.

As for `c1ccc([C@H]2C[C@@H]3CCCCN3C2)c(OCCCN2CCCCC2)c1` (relative stereo) [Example 71, anti-2-[2-(3-Piperidinylpropoxy)phenyl]octahydroindolizine], the pKi is 6.50.

Regarding `C(#CCN1CCCCC1)COc1ccc([C@H]2CC[C@H]3CCCCN32)cc1` (relative stereo) [Example 84, trans-3-[4-(3-Piperidinylmethylpropargyloxy)phenyl]octahydroindolizine], the pKi was 8.74.

`Nc1ccc([C@@H]2CC[C@@H]3CCCCN32)cc1` (relative stereo) [Example 95, trans-3-(4-Aminophenyl)octahydroindolizine] showed a pKi of 7.49.

As for `CN(C)c1ccc([C@@H]2CC[C@@H]3CCCCN32)cc1` (relative stereo) [Example 96, trans-3-(4-(N,N-Dimethylamino)phenyl)octahydroindolizine], the pKi is 6.42.

Regarding `CS(=O)(=O)Nc1ccc([C@@H]2CC[C@@H]3CCCCN32)cc1` (relative stereo) [Example 97, trans-3-(4-(Methylsulfonylamino)phenyl)octahydroindolizine], the pKi is 6.32.

`CS(=O)(=O)N(c1ccc([C@@H]2CC[C@@H]3CCCCN32)cc1)S(C)(=O)=O` (relative stereo) [Example 98, trans-3-(4-(bis-Methylsulfonylamino)phenyl)octahydroindolizine]: the pKi was 6.10.

Take `c1cc([C@@H]2CC[C@@H]3CCCCN32)ccc1NC1CCNCC1` (relative stereo) [Example 101, trans-3-[4-(4-Piperidinylamino)phenyl]octahydroindolizine]: the pKi was 6.50.

Regarding `O=C(CCN1CCCCC1)Nc1ccc([C@@H]2CC[C@@H]3CCCCN32)cc1` (relative stereo) [Example 105, trans-3-[4-(N-3-Piperidinylpropanamido)phenyl]octahydroindolizine], the pKi is 8.00.

`c1cc([C@@H]2CC[C@@H]3CCCCN32)ccc1NCCCN1CCCCC1` (relative stereo) [Example 106, trans-3-[4-(N-3-Piperidylpropylamino)phenyl]octahydroindolizine] gave a pKi of 8.82.

For `C=CC(=O)Nc1ccc([C@@H]2CC[C@@H]3CCCCN32)cc1` (relative stereo) [Example 107, N-[4-(trans-Octahydro-3-indolizinyl)phenyl]propenamide], the pKi was 6.49.

The molecule `C=CC(=O)N(C)c1ccc([C@@H]2CC[C@@H]3CCCCN32)cc1` (relative stereo) [Example 108, N-Methyl-N-[4-(trans-Octahydro-3-indolizinyl)phenyl]propenamide] showed a pKi of 5.56.

`CN(CCCN1CCCCC1)c1ccc([C@@H]2CC[C@@H]3CCCCN32)cc1` (relative stereo) [Example 110, trans-3-[4-(N-Methyl-N-3-piperidylpropylamino)phenyl]octahydroindolizine]: the pKi is 8.70.

In turn, `O=C(CCCN1CCCCC1)Nc1ccc([C@@H]2CC[C@@H]3CCCCN32)cc1` (relative stereo) [Example 111, trans-3-[4-(N-4-Piperidylbutanamido)phenyl]octahydroindolizine] had a pKi of 8.52.
